Experimental data as given in patent US9192585B2, “Inhibitors of cognitive decline” (Cognition Therapeutics, Inc., priority 2009, dated 2015).

Experiments:
[1] = system: Abeta oligomer effects on membrane trafficking in primary rat neurons; experiment: Primary neuron-based functional screening assay, membrane trafficking (Example EE); type: cell-based; conditions: for block of Abeta oligomer effects (decrease of intracellular formazan-filled vesicles): added to cultures prior to oligomer addition, FIG. 2A
Text: Primary rat neurons grown for at least 3 weeks in vitro were chosen as the basis for this screening assay. […] More complex systems such as acute or organotypic brain slices are very useful but not amenable to high throughput screening. […] For this reason, primary neuronal cultures were chosen because of their ability to be used in high throughput screens and fidelity to what occurs in vivo.
The MTT assay can be used as a measure of toxicity in cultures. Yellow tetrazolium salts were endocytosed by cells and reduced to insoluble purple formazan in the endosomal pathway. The level of purple formazan was a reflection of the number of actively metabolizing cells in culture, and reduction in the amount of formazan was taken as a measure of cell death or metabolic toxicity in culture.
The exocytosis assay was adapted for use with mature primary neuronal cultures grown for 3 weeks in vitro.
Compounds were added to neurons first, then oligomers were added.
Data were the average of 3 experiments. Scale bar=20 micron in FIG. 2D.

[2] = system: Abeta oligomer-mediated memory deficits; experiment: Fear conditioning assay (Example FF); type: in vivo; conditions: mice
Protocol: CT0109 was tested in an animal model of a memory-dependent behavioral task known as fear conditioning. The study protocol was designed based on published protocols (See e.g. Puzzo D, Privitera L, Leznik E, FàM, Staniszewski A, Palmeri A, Arancio O. Picomolar amyloid-beta positively modulates synaptic plasticity and memory in hippocampus. J Neurosci. 2008 Dec. 31; 28(53):14537-45). The formation of contextual memories is dependent upon the integrity of medial temporal lobe structures such as the hippocampus. In this assay mice were trained to remember that a particular salient context (conditioned stimulus; CS) is associated with an aversive event, in this case a mild foot shock (the unconditioned stimulus, US). Animals that show good learning will express an increase in freezing behavior when placed back into the same context. This freezing is absent in a novel context. Increased freezing in the context indicates strong hippocampal-dependent memory formation in animals. Memory tested in Fear Conditioning is sensitive to elevations of soluble Aβ. […] The fear condition model for memory was performed as described herein.

[3] = system: Abeta oligomer-induced acceleration of exocytosis in primary neurons; experiment: Exocytosis assay/MTT assay (Example AA); type: cell-based; conditions: Rattus norvegicus, Primary neuron; 28 μM memantine, control; read-out: inhibition of oligomer effects
Protocol: Primary neurons from E18 Sprague-Dawley rat embryos are plated at optimized concentrations in 384 well plates in NB media (Invitrogen). Neurons are maintained in cultures for 3 weeks, with twice weekly feeding of NB media with N2 supplement (Invitrogen). A test compound is added to cells, followed by addition of Vehicle or Abeta oligomer preparations (1.5 μM), and incubated for 1 to 24 hr at 37° C. in 5% CO2. MTT reagent (3-(4,5-dimethylthiazol-2-yl)-2,5diphenyl tetrazolium bromide) (Roche Molecular Biochemicals) is reconstituted in phosphate buffered saline to 5 mg/mL. 10 μL of MTT labeling reagent is added to each well and incubated at 37° C. for 1 h, then imaged. […]
Optimal cell density is determined based on cellular response to Abeta oligomers using the exocytosis assay as a readout, and immunohistochemical analysis of the relative proportion of glia to neurons in the cultures. Cultures are monitored on a weekly basis with immunohistochemistry and image processing-based quantification to monitor the percentage of the cultures that are neurons vs. glia (Glial cells). […]
Human amyloid peptide 1-42 is obtained from California Peptide, with lot-choice contingent upon quality control analysis. […] Toxicity is monitored in each image-based assay via quantification of nuclear morphology visualized with the DNA binding dye DAPI (Invitrogen). […]

## C[N+](C)(C)CCCCCC[N+](C)(C)C [hexamethonium bromide]
[1]
  block of Abeta oligomer effects (decrease of intracellular formazan-filled vesicles): none were active

## COc1cc(CCC(C)NCc2ccc(C(F)(F)F)cc2)ccc1O (stereo not drawn) [CT0109, 4-(3-(4-(trifluoromethyl)benzylamino)butyl)-2-methoxyphenol]
[2]; 2 pmol dose + Abeta (200 nM), FIG. 3 bar d, p<0.05
  block of oligomer-mediated memory deficits at 2 pmol dose: completely blocked
[2]; administered prior to Abeta oligomer administration, across doses
  block of oligomer effects on memory: blocked oligomer effects on memory in a dose-dependent manner
[2]; any dose
  adverse behavioral changes: No adverse behavioral changes
[2]; without Abeta, data not shown
  effect of compound alone on memory: No effect
[1]; Rattus norvegicus, Neuron, FIG. 2B, read-out: EC50, inhibition of oligomer effects on membrane trafficking
  EC50: 7 µM

## C[C@]12N[C@H](Cc3ccccc31)c1ccccc12 [MK-801]
[1]
  block of Abeta oligomer effects (decrease of intracellular formazan-filled vesicles): none were active

## CC12CC3CC(C)(C1)CC(N)(C3)C2 [Memantine, memantine]
[3]
  inhibition at 28 µM: 50%

## O[C@H]1[C@H](O)[C@@H](O)[C@H](O)[C@@H](O)[C@@H]1O [scyllo-inositol]
[1]
  block of Abeta oligomer effects (decrease of intracellular formazan-filled vesicles): none were active
